Blank lines part the entries; values can stand above or below the molecule they belong to.
Columns and labels:
[1] = system: neuroblastoma SH-SY5Y cells; assay: neuroprotection in H2O2-treated SH-SY5Y cells (MTS); assay type: cell-based; conditions: 50 µM; H2O2 300 µM; 24 h
Experimental: The used reference cytostatic drug doxorubicin (DX) decreased cell viability <50% under the same conditions at very low concentrations of 0.2 and 0.05 µM. […] Oxidative damage was induced by very high toxic levels of hydrogen peroxide (H2O2; 300 µM), the popular cell model for PD research, in neuroblastoma SH-SY5Y cell line. […] Salsolinol (SAL) was used at a concentration of 50 µM as the reference compound with the proven neuroprotection activity.
SH-SY5Y cells were seeded in microplate at a concentration of 2.5 × 10^4 cells/well in 100 μL culture medium and cultured for 24 h at 37 C and 5% CO2 to reach 70% confluence. […] (R,S)-salsolinol (purity ≥ 99%) was obtained from Cayman Chemical (Ann Arbor, MI, USA). Next, H2O2 was added at final concentration 300 μM and the cells were placed into the incubator. After 24 h of compounds co-incubation with H2O2, the CellTiter 96®AQueous Non-Radioactive Cell Proliferation Assay (MTS) labeling mixture was added to each well, and the microplates were incubated under the same conditions for 5 h. The absorbance was measured using a microplate reader EnSpire (PerkinElmer, Waltham, MA USA) at 490 nm. All measurements were performed in triplicate, and results are shown as mean ± SD.

hH3R = conditions: read-out: hH3R Ki; cited from earlier work
[2] = target: T1, human histamine H3 receptor (hH3R) (Homo sapiens, UniProt Q9Y5N1); assay: radioligand displacement binding assay, [3H]Nα-methylhistamine, HEK293 cells stably expressing hH3R; conditions: HEK293 cells stably expressing human H3R, mean (95% CI)
T1 construct: expressed in transfected cells
T1 sequence (Q9Y5N1 whole entry): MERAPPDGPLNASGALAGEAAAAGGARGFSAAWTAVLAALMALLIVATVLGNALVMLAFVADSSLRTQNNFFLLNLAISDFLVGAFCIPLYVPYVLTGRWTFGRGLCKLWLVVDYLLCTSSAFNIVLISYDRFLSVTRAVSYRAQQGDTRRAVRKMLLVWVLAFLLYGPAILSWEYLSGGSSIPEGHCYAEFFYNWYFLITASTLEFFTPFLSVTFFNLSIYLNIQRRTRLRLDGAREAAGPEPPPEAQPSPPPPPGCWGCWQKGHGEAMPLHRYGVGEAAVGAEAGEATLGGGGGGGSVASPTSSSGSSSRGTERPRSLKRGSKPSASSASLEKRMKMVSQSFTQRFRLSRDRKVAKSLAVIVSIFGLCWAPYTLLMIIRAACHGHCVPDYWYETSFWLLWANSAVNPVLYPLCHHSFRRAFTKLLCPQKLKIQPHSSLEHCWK
Experimental: [^3H]N^α-methylhistamine was used as a radioligand.
The radioligand displacement binding assay was carried out in HEK-293 cells stably expressing the recombinant hH3R as described by Kottke et al. with slight modifications. […] Obtained data from at least three experiments (in at least duplicates) were analyzed with GraphPad Prism 6.1 (San Diego, CA, USA) using nonlinear regression (one-site competition on logarithmic scale), and Ki values were transformed from IC50 according to Cheng-Prusoff. Statistical analysis was performed on −log Ki values.

hMAO B [3] = target: T2, hMAO B (Homo sapiens, UniProt P27338); assay: hMAO B inhibition, fluorometric Amplex Red MAO assay; assay type: biochemical; conditions: for IC50: mean ± SEM of 2-5 independent experiments, p-tyramine 200 μM
T2 construct: purchased Sigma Aldrich M7441
T2 sequence (P27338 1-520): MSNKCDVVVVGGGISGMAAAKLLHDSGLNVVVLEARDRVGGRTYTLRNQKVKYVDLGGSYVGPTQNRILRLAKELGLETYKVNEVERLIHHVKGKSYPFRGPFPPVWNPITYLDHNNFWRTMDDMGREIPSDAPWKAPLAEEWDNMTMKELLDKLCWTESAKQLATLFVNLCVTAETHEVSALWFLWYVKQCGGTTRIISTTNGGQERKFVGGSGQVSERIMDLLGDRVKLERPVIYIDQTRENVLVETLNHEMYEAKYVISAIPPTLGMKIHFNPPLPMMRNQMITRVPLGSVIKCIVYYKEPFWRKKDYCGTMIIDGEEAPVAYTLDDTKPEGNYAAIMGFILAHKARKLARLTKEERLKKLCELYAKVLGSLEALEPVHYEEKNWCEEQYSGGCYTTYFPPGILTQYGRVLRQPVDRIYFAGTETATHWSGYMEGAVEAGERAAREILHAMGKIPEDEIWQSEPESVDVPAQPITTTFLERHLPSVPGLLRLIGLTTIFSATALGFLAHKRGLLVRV

hMAO B [4] = target: T2, hMAO B; assay: hMAO B reversibility studies; assay type: biochemical; conditions: inhibitor at IC80; for effect of 30 min preincubation with enzyme on hMAO B inhibition: with vs without preincubation; for type of hMAO B inhibition (reversible or irreversible): without preincubation, compared with safinamide and rasagiline
Experimental: Reversibility of MAO B inhibitors was tested as described previously with slight modification. Two experiments were performed simultaneously. In the first experiment, inhibitors (in concentrations corresponding to their IC80 values) were incubated with the enzyme and p-tyramine (10 μM) for 22 min (measuring fluorescence every two minutes).

human MAO A = target: T3, human MAO A (Homo sapiens, UniProt P21397); assay: hMAO A inhibition, fluorometric Amplex Red MAO assay; assay type: biochemical; conditions: for IC50: mean ± SEM, p-tyramine 200 μM; for inhibition at 10 µM: percent of inhibition at 10 μM, mean of two independent experiments, read-out: MAO A (%Inh.)
T3 construct: purchased Sigma Aldrich M7316
T3 sequence (P21397 1-527): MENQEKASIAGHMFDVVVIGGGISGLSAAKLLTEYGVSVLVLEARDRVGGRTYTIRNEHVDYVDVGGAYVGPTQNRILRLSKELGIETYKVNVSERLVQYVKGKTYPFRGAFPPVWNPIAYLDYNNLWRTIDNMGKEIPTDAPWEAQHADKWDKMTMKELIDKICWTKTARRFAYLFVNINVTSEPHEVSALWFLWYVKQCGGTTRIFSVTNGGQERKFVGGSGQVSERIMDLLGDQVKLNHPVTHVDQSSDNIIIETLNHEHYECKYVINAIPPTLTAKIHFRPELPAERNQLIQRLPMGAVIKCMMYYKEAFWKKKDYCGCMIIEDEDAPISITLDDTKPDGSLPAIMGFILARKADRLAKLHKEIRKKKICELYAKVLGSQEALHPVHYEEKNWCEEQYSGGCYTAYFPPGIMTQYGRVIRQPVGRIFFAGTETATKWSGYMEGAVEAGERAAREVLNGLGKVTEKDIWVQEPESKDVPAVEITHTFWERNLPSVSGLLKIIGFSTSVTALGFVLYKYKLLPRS
Experimental: Inhibitory potency of compounds on MAO isoenzymes were carried out by a fluorometric method with a commercial Amplex™ Red Monoamine Oxidase Assay Kit (ThermoFisher Scientific A12214, Waltham, MA, USA) as described previously. For all tests, recombinant human MAO B and MAO A (from Sigma AldrichM7441 and M7316, Darmstadt, Germany) were used. Inhibitors’ activity was measured in the presence of p-tyramine (200 μM).
[…] […] All calculations were made in Microsoft Excel and GraphPadPrism software. All experiments were performed in duplicate, and data are expressed as mean ± SEM of 2–5 independent experiments.

hMAO B [5] = target: T2, hMAO B; assay: hMAO B kinetic studies (Michaelis-Menten, Lineweaver-Burk); assay type: biochemical
Experimental: Results from the kinetic experiment were used for determination of Michaelis–Menten curves (Figure 4A,C). […] From Michaelis–Menten curves, Vmax and KM values were fitted (Table 2). For both compounds, Vmax values decreased curvilinearly and KM values increased curvilinearly with the increased inhibitor concentrations.
The mode of the inhibition was tested according to the standard procedure described in Reversibility Studies using different concentrations of the substrate. […] Substrate was used in six concentrations: […], 0.1 mM, 0.5 mM, 1 mM, 1.5 mM, and 2 mM. After the experiment, velocities were calculated and put on the graph (y-axis) against the concentration of the substrate (x-axis). From the Michaelis–Menten plot Vmax, KM, and α values were calculated for different concentrations of the inhibitor. Double-reciprocal plot (Lineweaver–Burk plot) were prepared to display the data.
The α values for different modes of reversible inhibition as well as their diagnostic signature on […]
The α value for compound 9 was calculated by GraphPad Prism software from the nonlinear regression curves using following equation for mixed- […]
v = Vmax*[S] / [S]*(1+ [I]/ αKi) + KM*(1+ [I]/Ki) (1) v – velocity of enzyme reaction. Vmax - maximum velocity (at infinite substrate concentration); Ki – dissociation constant for Enzyme-Inhibitor complex (in the enzymology literature other symbols can be used such as: Ki, Kii , KEI etc.); αKi – dissociation constant for Enzyme-Substrate-Inhibitor complex (in the literature also under the symbols: Ki’, Kis and KES); KM – Michaelis-Menten constant; [I]– concentration of the inhibitor; [S] – concentration of the substrate [Ref S1].
Table S1. Relation between inhibition modality, α value, and diagnostic signature on the double-reciprocal plots (i.e Lineweaver-Burk plot) [S2].
α Inhibition modality Diagnostic signature on […]
α = 1 (inhibitor binds to free enzyme lines converge at the x-axis and enzyme-substrate complex
(inhibitor can bind to free lines converge to the left of the α > 1 enzyme and enzyme-substrate y-axis and above the x-axis complex unequally), inhibitor’s affinity is higher for free enzyme
(inhibitor can bind to free
α < 1 enzyme and enzyme-substrate lines converge to the left of the complex unequally), inhibitor’s y-axis and below the x-axis affinity is higher for the enzyme- […]
α → ∞ (inhibitor and substrate compete lines converge at the y-axis for the same site of binding) […]
α → 0 and α > 0 (inhibitor binds only to the parallel lines

[6] = concentration used in kinetic studies

Structure (SMILES): CC1NCCc2cc(O)c(O)cc21 (racemic) [SAL, (R,S)-salsolinol, reference compound]
- cell survival of H2O2-damaged SH-SY5Y cells (neuroprotection) [1]: statistically significant increased cells viability

Structure (SMILES): C#CCNC1CCc2cc(OCCCN3CCCCC3)ccc21 (stereo not shown) [Compound 1]
- Ki (hH3R): 6.7 nM

Structure (SMILES): O=C1/C(=C/c2ccc(OCCCN3CCCCC3)cc2)Cc2cc(OCc3ccc(Br)cc3)ccc21 [Compound 2]
- Ki (hH3R): 6.5 nM

Structure (SMILES): CCC(C)(C)c1ccc(OCCCN2CCCC2)cc1 [Compound 3]
- Ki (hH3R): 63 nM

Structure (SMILES): CC1CCCCN1CCCOc1ccc(C(C)(C)C)cc1.O=C(O)C(=O)O (stereo not shown) [Compound 9, 1-(3-(4-tert-Butylphenoxy)propyl)-2-methylpiperidine hydrogen oxalate]
- IC50 (human MAO A): > 10000 nM
- Ki [2]: 69 nM
- IC20 (hMAO B [3]; [6]): 0.2 nM
- IC80 (hMAO B [3]; [6]): 40 nM
- IC50 (hMAO B [3]): 11 ± 1 nM
- effect of 30 min preincubation with enzyme on hMAO B inhibition (hMAO B [4]): did not show differences between experiments with and without the preincubation
- type of hMAO B inhibition (reversible or irreversible) (hMAO B [4]): reversible
- melting point: 114 to 116 °C
- constant α (hMAO B [5]; calculated by GraphPad Prism from nonlinear regression, mixed-model inhibition): 1.6
- mode of hMAO B inhibition (hMAO B [5]; from Vmax and KM behaviour and Lineweaver-Burk plot): mixed mode inhibition
- Vmax (RFU/min) (hMAO B [5]; inhibitor concentration 0.2 nM): 1652 RFU/min
- Vmax (RFU/min) (hMAO B [5]; inhibitor concentration 10 nM): 1544 RFU/min
- Vmax (RFU/min) (hMAO B [5]; inhibitor concentration 40 nM): 1238 RFU/min

Structure (SMILES): CC1CCCCN1CCCCOc1ccc(C(C)(C)C)cc1.O=C(O)C(=O)O (stereo not shown) [Compound 10, 1-(4-(4-tert-Butylphenoxy)butyl)-2-methylpiperidine hydrogen oxalate]
- IC50 (human MAO A): > 10000 nM
- Ki [2]: 153 nM
- IC50 (hMAO B [3]): 475 ± 38 nM
- melting point: 107 to 110 °C

Structure (SMILES): CC(C)(C)c1ccc(OCCCN2CCCCCC2)cc1.O=C(O)C(=O)O [Compound 28, 1-(3-(4-tert-Butylphenoxy)propyl)-azepane hydrogen oxalate]
- IC50 (human MAO A): > 10000 nM
- Ki [2]: 111 nM
- IC50 (hMAO B [3]): 45 ± 4 nM
- melting point: 138 to 140 °C

Structure (SMILES): CC(C)(C)c1ccc(OCCCCN2CCCCCC2)cc1.O=C(O)C(=O)O [Compound 29, 1-(4-(4-tert-Butylphenoxy)butyl)-azepane hydrogen oxalate]
- IC50 (human MAO A): > 10000 nM
- inhibition at 10 µM (human MAO A): 23%
- Ki [2]: 299 nM
- melting point: 149 to 151 °C

Structure (SMILES): C[C@H](NCc1ccc(OCc2cccc(F)c2)cc1)C(N)=O [safinamide, reference compound]
- effect of 30 min preincubation with enzyme on hMAO B inhibition (hMAO B [4]): did not show differences between experiments with and without the preincubation

The next lines start with results.

- Ki [2]: 371 nM
- IC50 (hMAO B [3]): 2.7 ± 0.4 nM
- type of hMAO B inhibition (reversible or irreversible) (hMAO B [4]): reversible
- melting point: 147 to 149 °C
Structure (SMILES): CC(C)(C)c1ccc(OCCCN2CCCC2)cc1.O=C(O)C(=O)O [Compound 5, 1-(3-(4-tert-Butylphenoxy)propyl)pyrrolidine hydrogen oxalate]
- effect of 30 min preincubation with enzyme on hMAO B inhibition (hMAO B [4]): did not show differences between experiments with and without the preincubation

- IC50 (human MAO A): > 10000 nM
- Ki [2]: 309 nM
- IC50 (hMAO B [3]): 290 ± 7 nM
- melting point: 150 to 152 °C
Structure (SMILES): CC(C)(C)c1ccc(OCCCCN2CCCCC2)cc1.O=C(O)C(=O)O [Compound 6, 1-(4-(4-tert-Butylphenoxy)butyl)piperidine hydrogen oxalate]

- IC50 (human MAO A): > 10000 nM
- Ki [2]: 98 nM
- IC50 (hMAO B [3]): 117 ± 12 nM
- melting point: 141 to 143 °C
Structure (SMILES): CC1CCCN(CCCOc2ccc(C(C)(C)C)cc2)C1.O=C(O)C(=O)O (stereo not shown) [Compound 12, 1-(3-(4-tert-Butylphenoxy)propyl)-3-methylpiperidine hydrogen oxalate]

- IC50 (human MAO A): > 10000 nM
- Ki [2]: 1620 nM
- IC50 (hMAO B [3]): 476 ± 38 nM
- melting point: 183 to 186 °C
Structure (SMILES): CC1(C)CCCN(CCCOc2ccc(C(C)(C)C)cc2)C1.O=C(O)C(=O)O [Compound 16, 1-(3-(4-tert-Butylphenoxy)propyl)-3,3-dimethylpiperidine hydrogen oxalate]

- IC50 (human MAO A): > 10000 nM
- inhibition at 10 µM (human MAO A): 19%
- Ki [2]: 3540 nM
- melting point: 150 to 153 °C
Structure (SMILES): CC1(C)CCCN(CCCCCOc2ccc(C(C)(C)C)cc2)C1.O=C(O)C(=O)O [Compound 18, 1-(5-(4-tert-Butylphenoxy)pentyl)-3,3-dimethylpiperidine hydrogen oxalate]

- IC50 (human MAO A): > 10000 nM
- inhibition at 10 µM (human MAO A): 24%
- Ki [2]: 2580 nM
- melting point: 122 to 125 °C
Structure (SMILES): CC1(C)CCCN(CCCCCCOc2ccc(C(C)(C)C)cc2)C1.O=C(O)C(=O)O [Compound 19, 1-(6-(4-tert-Butylphenoxy)hexyl)-3,3-dimethylpiperidine hydrogen oxalate]
